The record followed here is ChEMBL document CHEMBL4680323, “'Proximity frequencies' a new parameter to evaluate the profile of GABAR modulators” (Bioorg Med Chem Lett, 2021).

The source made the active and inactive calls. The rule behind the calls is not given here.

Holding throughout (type): cell-based
The subject of test [1] is Oocyte. In words: Antagonist activity at GABAA alpha1/beta2/gamma2L (unknown origin) expressed in Xenopus laevis oocyte assessed as reduction in lorazepam-induced chloride current at 100 uM relative to control. Details: scale not given: the % may be the effect or the level left. Conditions: Homo sapiens, filed as antagonist.
Test [2] concerns Oocyte. In words: Modulatory activity at GABAA alpha1/beta2/gamma2L (unknown origin) expressed in Xenopus laevis oocyte assessed as chloride current at 1 to 100 uM. As to conditions: Homo sapiens, dose 1-100 µM.
The subject of test [3] is Oocyte. Description: Inverse agonist activity at GABAA alpha1/beta2/gamma2L (unknown origin) expressed in Xenopus laevis oocyte assessed as reduction in chloride current at 30 uM relative to control. As to conditions: Homo sapiens. The arrangement: scale not given: the % may be the effect or the level left.
For test [4], the system named is Oocyte. In words: Inverse agonist activity at GABAA alpha1/beta2/gamma2L (unknown origin) expressed in Xenopus laevis oocyte assessed as reduction in chloride current at 100 uM relative to control. Details: scale not given: the % may be the effect or the level left. Conditions: Homo sapiens, filed as inverse agonist.
In test [5] the test system is Oocyte. In words: Agonist activity at GABAA alpha1/beta2/gamma2L (unknown origin) expressed in Xenopus laevis oocyte assessed as increase in chloride current at 30 uM relative to control. As to conditions: Homo sapiens, filed as agonist.

For `COc1ccc2cnc3c(C(=O)NCc4ccccc4)cnn3c2c1`, the result in the test with Oocyte [1] was Active. Moreover, the result in the test with Oocyte [2] was inactive. In the case of `COc1ccc2cnc3c(C(=O)NC4CCCCC4)cnn3c2c1`, the Activity came out at 19% in the test on Oocyte [3] and 49% in the test with Oocyte [4]. On to `COc1ccc2cnc3c(C(=O)Nc4ccccc4)cnn3c2c1`, for which the Activity in the test with Oocyte [5] turned out to be 34%. On the same count and under the same terms, then `COc1ccc2cnc3c(C(=O)NCc4ccco4)cnn3c2c1`, with “Active”. On to `COc1ccc2cnc3c(C(=O)NCc4ccccc4OC)cnn3c2c1`, for which the result with Oocyte [1] was Active. In addition, in the test on Oocyte [2], the result was inactive. Regarding `COc1ccc2cnc3c(C(=O)NCC4CCCCC4)cnn3c2c1`, the result with Oocyte [1] was Active. Further, the outcome in the test on Oocyte [2] was inactive. For `COc1ccc2c(c1)-n1ncc(C(=O)NCc3ccccc3OC)c1NC2` the same measures were “Active” and “inactive”. For the compound `COc1ccc2cnc3c(C(=O)NCc4cccs4)cnn3c2c1`, the Activity in the test with Oocyte [5] came to 34%. As to `COc1ccc2cnc3c(C(=O)NC(C)C)cnn3c2c1`, in the test with Oocyte [1], the outcome was Active. In addition, the result in the test with Oocyte [2] was inactive.

As to `COc1ccc2c(c1)-n1ncc(C(=O)NC3CCCCC3)c1NC2`, the result in the test with Oocyte [1] was Active. The result in the test on Oocyte [2] was inactive. The like results for `COc1ccc2c(c1)-n1ncc(C(=O)NC(C)C)c1NC2` were, in that order, 90% and “inactive”. With `COc1ccc2c(c1)-n1ncc(C(=O)NCc3ccccc3)c1NC2`, the result in the test on Oocyte [1] was Active. For the same compound, the result with Oocyte [2] was inactive. The like results for `COc1ccc2c(c1)-n1ncc(C(=O)NCC3CCCCC3)c1NC2` were, in that order, “Active” and “inactive”. Regarding `COc1ccc2c(c1)-n1ncc(C(=O)Nc3ccccc3)c1NC2`, the Activity in the test on Oocyte [5] came out at 34%. Regarding `COc1ccc2cnc3c(C(N)=O)cnn3c2c1`, in the test with Oocyte [1], the result was Active. Moreover, the outcome in the test on Oocyte [2] was inactive. For `COc1ccc2c(c1)-n1ncc(C(N)=O)c1NC2` the same measures were “Active” and “inactive”. On to `COc1ccc2c(c1)-n1ncc(C(=O)NCc3ccco3)c1NC2`, for which, in the test with Oocyte [5], the result was Active.
